This is an account of results in PMC3532939 (Biochemistry, 2012).

In one assay the target is T1, SmPabB (Stenotrophomonas maltophilia, UniProt B2FR92).
T1 sequence (B2FR92 1-454): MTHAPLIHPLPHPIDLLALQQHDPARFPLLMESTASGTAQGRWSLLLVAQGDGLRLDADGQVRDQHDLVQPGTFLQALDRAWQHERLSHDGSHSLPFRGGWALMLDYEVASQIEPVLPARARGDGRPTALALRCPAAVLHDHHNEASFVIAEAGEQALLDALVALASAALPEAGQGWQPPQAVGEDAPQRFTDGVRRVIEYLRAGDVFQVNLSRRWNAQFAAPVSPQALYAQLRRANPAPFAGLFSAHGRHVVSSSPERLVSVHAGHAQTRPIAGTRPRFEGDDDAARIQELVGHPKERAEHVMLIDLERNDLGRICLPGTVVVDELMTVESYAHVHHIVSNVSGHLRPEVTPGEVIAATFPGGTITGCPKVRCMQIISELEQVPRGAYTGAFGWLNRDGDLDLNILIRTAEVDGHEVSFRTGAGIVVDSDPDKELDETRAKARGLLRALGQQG
Briefly: isothermal titration calorimetry. The format is binding.

The target in another assay is T2, E. coli PabB (Escherichia coli, UniProt P05041).
T2 sequence (P05041 1-453): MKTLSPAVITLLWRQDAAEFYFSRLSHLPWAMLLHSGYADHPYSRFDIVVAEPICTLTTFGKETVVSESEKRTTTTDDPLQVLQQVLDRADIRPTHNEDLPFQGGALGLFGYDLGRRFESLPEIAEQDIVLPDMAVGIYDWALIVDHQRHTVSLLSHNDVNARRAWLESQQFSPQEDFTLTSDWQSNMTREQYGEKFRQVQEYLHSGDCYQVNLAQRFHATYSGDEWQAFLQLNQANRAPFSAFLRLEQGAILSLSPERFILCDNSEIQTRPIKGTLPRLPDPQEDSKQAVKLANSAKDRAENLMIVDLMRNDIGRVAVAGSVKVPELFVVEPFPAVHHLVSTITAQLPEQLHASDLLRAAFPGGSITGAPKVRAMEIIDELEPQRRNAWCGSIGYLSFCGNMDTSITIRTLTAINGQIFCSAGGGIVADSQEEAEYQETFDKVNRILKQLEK
Briefly: LC/MS of bound ligand released from purified protein. The format is binding. As to conditions: co-purified tryptophan; vestigial regulatory site.

Assay [1] addresses T3, Stenotrophomonas maltophilia PabB (aminodeoxychorismate synthase) (Stenotrophomonas maltophilia, UniProt B2FR92 2-454).
T3 sequence: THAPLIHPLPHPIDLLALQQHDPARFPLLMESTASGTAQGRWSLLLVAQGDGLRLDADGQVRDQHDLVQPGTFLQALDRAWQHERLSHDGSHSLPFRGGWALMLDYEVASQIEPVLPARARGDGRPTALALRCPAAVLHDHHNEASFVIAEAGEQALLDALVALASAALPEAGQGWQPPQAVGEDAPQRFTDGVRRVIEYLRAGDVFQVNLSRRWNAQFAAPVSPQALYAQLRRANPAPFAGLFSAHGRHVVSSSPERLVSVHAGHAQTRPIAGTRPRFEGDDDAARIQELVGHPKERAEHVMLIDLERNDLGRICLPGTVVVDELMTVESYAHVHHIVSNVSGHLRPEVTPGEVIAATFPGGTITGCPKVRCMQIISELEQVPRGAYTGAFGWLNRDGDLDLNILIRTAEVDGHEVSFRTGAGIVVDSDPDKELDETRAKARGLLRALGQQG
Put plainly: other fluorescence titration.

Assay [2] has as its target T4, E. coli PabB (aminodeoxychorismate synthase) (E. coli, UniProt P05041 1-453).
T4 sequence: T2 sequence (P05041 1-453)
Briefly: other fluorescence titration.

For `N[C@@H](Cc1c[nH]c2ccccc12)C(=O)O` [tryptophan], the Kd on SmPabB was ~11700 nM. Besides, the “LC/MS of bound ligand released from purified protein” value at E. coli PabB was “E. coli PabB samples, as expected, contained tryptophan”.

B1: E. coli PabA (glutamine amidotransferase subunit of aminodeoxychorismate synthase) (enzyme, UniProt P00903 1-187, looked up)
chain: MILLIDNYDSFTWNLYQYFCELGADVLVKRNDALTLADIDALKPQKIVISPGPCTPDEAGISLDVIRHYAGRLPILGVCLGHQAMAQAFGGKVVRAAKVMHGKTSPITHNGEGVFRGLANPLTVTRYHSLVVEPDSLPACFDVTAWSETREIMGIRHRQWDLEGVQFHPESILSEQGHQLLANFLHR
In the case of B1, the Kd in assay [1] was 39 nM; in assay [2] it was 109 nM.
